Key:
Klebsiella pneumoniae [1] = assay: Antibacterial activity against porin deficient OmpA positive extended-spectrum beta-lactamase producing Klebsiella pneumoniae KPBj1 revertant by disk agar diffusion method; type: functional
Klebsiella pneumoniae [2] = assay: Antibacterial activity against porin deficient OmpA positive Klebsiella pneumoniae KPBj3 expressing efflux system by disk agar diffusion method; type: functional
Klebsiella pneumoniae [3] = assay: Antibacterial activity against porin deficient OmpA positive Klebsiella pneumoniae KPBj5 revertant by disk agar diffusion method; type: functional
Klebsiella pneumoniae [4] = assay: Antibacterial activity against porin, OmpA positive Klebsiella pneumoniae KPBj5 expressing efflux system by disk agar diffusion method; type: functional
Klebsiella pneumoniae [5] = assay: Antibacterial activity against porin, OmpA positive Klebsiella pneumoniae KPBj1 revertant by disk agar diffusion method; type: functional
Klebsiella pneumoniae [6] = assay: Antibacterial activity against porin, OmpA positive Klebsiella pneumoniae KPBj3 expressing efflux system by disk agar diffusion method; type: functional
Klebsiella pneumoniae [7] = assay: Antibacterial activity against porin deficient OmpA positive Klebsiella pneumoniae KPBj3 revertant by disk agar diffusion method; type: functional
Klebsiella pneumoniae [8] = assay: Antibacterial activity against porin deficient OmpA positive Klebsiella pneumoniae KPBj5 expressing efflux system by disk agar diffusion method; type: functional
Klebsiella pneumoniae [9] = assay: Antibacterial activity against porin, OmpA positive Klebsiella pneumoniae KPBj5 revertant by disk agar diffusion method; type: functional
Klebsiella pneumoniae [10] = assay: Antibacterial activity against porin, OmpA positive Klebsiella pneumoniae KPBj1 expressing efflux system by disk agar diffusion method; type: functional
Klebsiella pneumoniae [11] = assay: microbe, parasite or virus in culture; settings: KPBj1
Description: Antibacterial activity against porin deficient OmpA positive extended-spectrum beta-lactamase producing Klebsiella pneumoniae KPBj1 expressing efflux system by disk agar diffusion method

Klebsiella pneumoniae [12] = assay: Antibacterial activity against porin, OmpA positive Klebsiella pneumoniae ATCC 138821 by disk agar diffusion method; type: functional
Klebsiella pneumoniae [13] = assay: Antibacterial activity against porin, OmpA positive Klebsiella pneumoniae KPBj3 revertant by disk agar diffusion method; type: functional
Klebsiella pneumoniae [14] = assay: Antibacterial activity against porin deficient OmpA positive Klebsiella pneumoniae KPBj1 revertant by disk agar diffusion method; type: functional
Klebsiella pneumoniae [15] = assay: Antibacterial activity against porin, OmpA positive extended-spectrum beta-lactamase producing Klebsiella pneumoniae KPBj1 by disk agar diffusion method; type: functional
Klebsiella pneumoniae [16] = assay: Antibacterial activity against porin deficient OmpA positive Klebsiella pneumoniae KPBj1 expressing efflux system by disk agar diffusion method; type: functional
Klebsiella pneumoniae [17] = assay: Antibacterial activity against porin, OmpA positive extended-spectrum beta-lactamase producing Klebsiella pneumoniae KPBj1 revertant by disk agar diffusion method; type: functional

Measured: MIC

C[C@@H](O)[C@H]1C(=O)N2C(C(=O)O)=C(S[C@@H]3CN[C@H](C(=O)Nc4cccc(C(=O)O)c4)C3)[C@H](C)[C@H]12
2 µg/mL: Klebsiella pneumoniae [1]
0.125 µg/mL: Klebsiella pneumoniae [15]
0.007 µg/mL: Klebsiella pneumoniae [5] | Klebsiella pneumoniae [6] | Klebsiella pneumoniae [9] | Klebsiella pneumoniae [10] | Klebsiella pneumoniae [12] | Klebsiella pneumoniae [13]
0.03 µg/mL: Klebsiella pneumoniae [17]
0.015 µg/mL: Klebsiella pneumoniae [4]
0.5 µg/mL: Klebsiella pneumoniae [14] | Klebsiella pneumoniae [16]
4 µg/mL: Klebsiella pneumoniae [11]
0.25 µg/mL: Klebsiella pneumoniae [2] | Klebsiella pneumoniae [3] | Klebsiella pneumoniae [7] | Klebsiella pneumoniae [8]

CO/N=C(\C(=O)N[C@@H]1C(=O)N2C(C(=O)O)=C(COC(C)=O)CS[C@H]12)c1csc(N)n1 [CEFOTAXIME]
0.25 µg/mL: Klebsiella pneumoniae [2] | Klebsiella pneumoniae [7] | Klebsiella pneumoniae [8] | Klebsiella pneumoniae [14] | Klebsiella pneumoniae [16]
256 µg/mL: Klebsiella pneumoniae [1] | Klebsiella pneumoniae [11]
0.125 µg/mL: Klebsiella pneumoniae [3] | Klebsiella pneumoniae [4] | Klebsiella pneumoniae [10]
0.06 µg/mL: Klebsiella pneumoniae [5] | Klebsiella pneumoniae [6] | Klebsiella pneumoniae [9] | Klebsiella pneumoniae [12] | Klebsiella pneumoniae [13]
128 µg/mL: Klebsiella pneumoniae [15] | Klebsiella pneumoniae [17]

CO[C@@]1(NC(=O)Cc2cccs2)C(=O)N2C(C(=O)O)=C(COC(N)=O)CS[C@@H]21 [CEFOXITIN]
32 µg/mL: Klebsiella pneumoniae [1] | Klebsiella pneumoniae [2] | Klebsiella pneumoniae [7] | Klebsiella pneumoniae [8] | Klebsiella pneumoniae [11] | Klebsiella pneumoniae [14] | Klebsiella pneumoniae [16]
2 µg/mL: Klebsiella pneumoniae [5] | Klebsiella pneumoniae [9] | Klebsiella pneumoniae [12] | Klebsiella pneumoniae [13] | Klebsiella pneumoniae [17]
8 µg/mL: Klebsiella pneumoniae [4] | Klebsiella pneumoniae [10] | Klebsiella pneumoniae [15]
16 µg/mL: Klebsiella pneumoniae [3]
4 µg/mL: Klebsiella pneumoniae [6]

CC(C)(O/N=C(\C(=O)N[C@@H]1C(=O)N2C(C(=O)[O-])=C(C[n+]3ccccc3)CS[C@H]12)c1csc(N)n1)C(=O)O [CEFTAZIDIME]
0.25 µg/mL: Klebsiella pneumoniae [2] | Klebsiella pneumoniae [4] | Klebsiella pneumoniae [6] | Klebsiella pneumoniae [7] | Klebsiella pneumoniae [8] | Klebsiella pneumoniae [10]
32 µg/mL: Klebsiella pneumoniae [1] | Klebsiella pneumoniae [11] | Klebsiella pneumoniae [15]
0.125 µg/mL: Klebsiella pneumoniae [3] | Klebsiella pneumoniae [5] | Klebsiella pneumoniae [9] | Klebsiella pneumoniae [12] | Klebsiella pneumoniae [13] | Klebsiella pneumoniae [14] | Klebsiella pneumoniae [16]
16 µg/mL: Klebsiella pneumoniae [17]

O=C(N[C@H](CO)[C@H](O)c1ccc([N+](=O)[O-])cc1)C(Cl)Cl [CHLORAMPHENICOL]
4 µg/mL: Klebsiella pneumoniae [1] | Klebsiella pneumoniae [7] | Klebsiella pneumoniae [13] | Klebsiella pneumoniae [14]
8 µg/mL: Klebsiella pneumoniae [4] | Klebsiella pneumoniae [8]
128 µg/mL: Klebsiella pneumoniae [2] | Klebsiella pneumoniae [6] | Klebsiella pneumoniae [10] | Klebsiella pneumoniae [11] | Klebsiella pneumoniae [15] | Klebsiella pneumoniae [16]
2 µg/mL: Klebsiella pneumoniae [3] | Klebsiella pneumoniae [5] | Klebsiella pneumoniae [9] | Klebsiella pneumoniae [12] | Klebsiella pneumoniae [17]

C[C@H]1COc2c(N3CCN(C)CC3)c(F)cc3c(=O)c(C(=O)O)cn1c23.C[C@H]1COc2c(N3CCN(C)CC3)c(F)cc3c(=O)c(C(=O)O)cn1c23.O [LEVOFLOXACIN]
0.03 µg/mL: Klebsiella pneumoniae [5] | Klebsiella pneumoniae [12] | Klebsiella pneumoniae [13] | Klebsiella pneumoniae [17]
0.06 µg/mL: Klebsiella pneumoniae [1] | Klebsiella pneumoniae [3] | Klebsiella pneumoniae [9] | Klebsiella pneumoniae [14]
0.015 µg/mL: Klebsiella pneumoniae [7]

CCn1cc(C(=O)O)c(=O)c2ccc(C)nc21 [NALIDIXIC ACID]
4 µg/mL: Klebsiella pneumoniae [1] | Klebsiella pneumoniae [12] | Klebsiella pneumoniae [17]
8 µg/mL: Klebsiella pneumoniae [4] | Klebsiella pneumoniae [8]
2 µg/mL: Klebsiella pneumoniae [3] | Klebsiella pneumoniae [5] | Klebsiella pneumoniae [7] | Klebsiella pneumoniae [9] | Klebsiella pneumoniae [13] | Klebsiella pneumoniae [14]
32 µg/mL: Klebsiella pneumoniae [2] | Klebsiella pneumoniae [6] | Klebsiella pneumoniae [10] | Klebsiella pneumoniae [11] | Klebsiella pneumoniae [15] | Klebsiella pneumoniae [16]

— ChEMBL document CHEMBL1687777, “Membrane efflux and influx modulate both multidrug resistance and virulence of Klebsiella pneumoniae in a Caenorhabditis elegans model” (2010)
